Reference: patent publication US7094899B2, “Vitreous form of known bradykinin antagonist” (Astellas Pharma Inc., priority 1998, dated 2006)

Legend:
[1] = background art statement; cited from earlier work
[2] = Solubility test (JP XIII dissolution test, paddle method); assay type: physicochemical; conditions: 900 ml distilled water, paddle 50 rpm; compared with crystal types A, B, C and mixture A+C of FR173657 hydrate (FIG. 6)
Experimental: A solubility test was performed in conformity with the Japanese Pharmacopoeia(JP) XIII dissolution test, paddle method. As the test solution, 900 ml of distilled water was used. The paddle speed was set to 50 rpm. The vitreous form of FR173657 ([…]) was added to the test solution and 10 ml aliquots of the test solution were taken as samples in each measurement. Each sample was filtered through a 0.45 μm filter and analyzed by high-performance liquid chromatography.
As a control, crystal type A, crystal type B, crystal type C and a mixture of crystal types A and C of FR173657 hydrate were used.

[3] = Stability test of the vitreous form milled mechanically; assay type: physicochemical
[4] = 25° C. Relative humidity: 60%, 3 Months
[5] = 30° C. Relative humidity: 75%, 3 Months
[6] = 40° C. Relative humidity: 75%, 3 Months

SMILES: CC(=O)Nc1ccc(/C=C/C(=O)NCC(=O)N(C)c2ccc(Cl)c(COc3cccc4ccc(C)nc34)c2Cl)cn1 [amorphous form, 8-[3-[N-[(E)-3-(6-acetamidopyridin-3-yl)acryloylglycyl]-N-methylamino]-2,6-dichlorobenzyloxy]-2-methylquinoline]
- Solid stability [1]: poor

SMILES: CC(=O)Nc1ccc(/C=C/C(=O)NCC(=O)N(C)c2ccc(Cl)c(COc3cccc4ccc(C)nc34)c2Cl)cn1 [vitreous form of FR173657, 8-[3-[N-[(E)-3-(6-acetamidopyridin-3-yl)acryloylglycyl]-N-methylamino]-2,6-dichlorobenzyloxy]-2-methylquinoline]
- Solubility [2]: higher solubility
- Appearance [3, 4]: Pale
- Form DSC [3, 4]: Vitreous
- Form Powder X-ray [3, 4]: Vitreous
- Residual (%) [3, 4]: 102.1%
- Appearance [3, 5]: Pale
- Form DSC [3, 5]: Vitreous
- Form Powder X-ray [3, 5]: Vitreous
- Residual (%) [3, 5]: 102.1%
- Appearance [3, 6]: Pale
- Form DSC [3, 6]: Vitreous
- Form Powder X-ray [3, 6]: Vitreous
- Residual (%) [3, 6]: 101.2%
- Appearance ([3]; 40° C., 3 Months): Pale
- Form DSC ([3]; 40° C., 3 Months): Vitreous
- Form Powder X-ray ([3]; 40° C., 3 Months): Vitreous
- Residual (%) ([3]; 40° C., 3 Months): 100.8%
- Appearance ([3]; 50° C., 3 Months): Pale
- Form DSC ([3]; 50° C., 3 Months): Vitreous
- Form Powder X-ray ([3]; 50° C., 3 Months): Vitreous
- Residual (%) ([3]; 50° C., 3 Months): 101.0%
- Appearance ([3]; Initial): Pale
- Form DSC ([3]; Initial): Vitreous
- Form Powder X-ray ([3]; Initial): Vitreous
- Residual (%) ([3]; Initial): 100.0%
- Stability (crystallization / decomposition) ([3]; under heat, in moisture, through physical treatment, long-term storage): neither crystallizes nor decomposes at all
